Experiments:
Experiment in all cases: relative viability (nuclei count vs DMSO), 5 days (fraction); higher = more cells survive
[1] = compound: C[C@@H](N)c1ccc(C(=O)Nc2ccnc3[nH]ccc23)cc1 + N=C(N)NC(=N)NCCc1ccccc1 [Phenformin] (partner 250 µM)
Procedure, shortened: (§1)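 Medians of duplicate plates are given as relative viability. That measure is the nuclei count in treated wells divided by the count in vehicle wells. Counts were taken on 4× images of lung cancer cell lines in 1536-well plates, 5 days after pin-tool dosing the day after seeding with one drug alone or a fixed anchor-drug dose plus five library-drug doses (not always all listed) in √10 steps.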

Tanzisertib + Crizotinib = compound: O[C@H]1CC[C@H](Nc2ncc3nc(Nc4c(F)cc(F)cc4F)n([C@H]4CCOC4)c3n2)CC1 [Tanzisertib] + C[C@@H](Oc1cc(-c2cnn(C3CCNCC3)c2)cnc1N)c1c(Cl)ccc(F)c1Cl [Crizotinib] (partner 1 µM)
Procedure, shortened: as §1

[2] = compound: C1CNCCC1C2=CC(=NN2)C3=CC=NC=C3 + CS(=O)(=O)N1CCN(Cc2cc3nc(-c4cccc5[nH]ncc45)nc(N4CCOCC4)c3s2)CC1 [Pictilisib] (partner 1 µM)
Procedure, shortened: as §1

[3] = compound: C[C@@H](N)c1ccc(C(=O)Nc2ccnc3[nH]ccc23)cc1 + O=C(c1cc(Cc2n[nH]c(=O)c3ccccc23)ccc1F)N1CCN(C(=O)C2CC2)CC1 [Olaparib] (partner 8 µM)
Procedure, shortened: as §1

| Cell Line | relative viability ([1]; first compound 0.04 µM) | relative viability ([1]; first compound 0.1265 µM) | relative viability ([1]; first compound 0.4 µM) | relative viability ([1]; first compound 1.265 µM) | relative viability ([1]; first compound 4 µM) | relative viability (Tanzisertib + Crizotinib; first compound 0.08 µM) | relative viability (Tanzisertib + Crizotinib; first compound 0.253 µM) | relative viability (Tanzisertib + Crizotinib; first compound 0.8 µM) | relative viability (Tanzisertib + Crizotinib; first compound 2.53 µM) | relative viability (Tanzisertib + Crizotinib; first compound 8 µM) | relative viability ([2]; first compound 0.08 µM) | relative viability ([2]; first compound 0.8 µM) | relative viability ([2]; first compound 2.53 µM) | relative viability ([2]; first compound 8 µM) | relative viability ([3]; first compound 0.04 µM) | relative viability ([3]; first compound 0.1265 µM) | relative viability ([3]; first compound 0.4 µM) | relative viability ([3]; first compound 1.265 µM) | relative viability ([3]; first compound 4 µM) |
| --- | --- | --- | --- | --- | --- | --- | --- | --- | --- | --- | --- | --- | --- | --- | --- | --- | --- | --- | --- |
| NCI-H2170 | 0.401 | 0.442 | 0.492 | 0.353 | 0.38 | 1.42 | 1.18 | 1.16 | 1.09 | 1.02 | 0.278 | 0.304 | 0.309 | 0.364 | 0.618 | 0.584 | 0.614 | 0.746 | 0.543 |
| NCI-H2228 | 0.354 | 0.393 | 0.315 | 0.33 | 0.357 | 0.53 | 0.458 | 0.475 | 0.465 | 0.351 | 0.388 | 0.483 | 0.409 | 0.544 | 0.535 | 0.726 | 0.714 | 0.917 | 0.771 |
| NCI-H2347 | 0.502 | 0.532 | 0.546 |  | 0.584 | 0.675 | 0.765 | 0.739 | 0.945 | 0.827 | 0.661 | 0.672 | 0.651 | 0.494 | 0.53 | 0.579 | 0.534 | 0.566 | 0.461 |
| NCI-H2405 | 0.176 | 0.449 | 0.369 | 0.264 | 0.218 | 0.935 | 0.825 | 0.828 | 0.916 | 0.789 | 0.442 | 0.441 | 0.373 | 0.366 |  | 0.863 | 0.741 | 0.587 | 0.337 |
| NCI-H3122 | 0.352 | 0.413 | 0.39 |  | 0.377 | 0.302 | 0.306 | 0.288 | 0.292 | 0.293 | 0.59 | 0.549 | 0.694 | 0.587 | 0.625 | 0.613 | 0.638 | 0.702 | 0.622 |
| PC-3 [JPC-3] | 0.473 | 0.495 | 0.477 | 0.474 | 0.456 | 0.969 | 1.05 | 0.989 | 0.971 | 0.994 | 0.719 | 0.721 | 0.738 | 0.766 | 0.968 | 1.22 | 1.13 | 1.23 | 1.01 |
| PC-14 | 0.409 | 0.653 | 0.555 | 0.348 | 0.519 | 0.979 | 0.878 | 0.994 | 0.883 | 0.574 | 0.716 | 0.763 | 0.842 | 0.661 | 0.281 | 0.233 | 0.263 | 0.29 | 0.271 |
| RERF-LC-KJ | 0.417 | 0.435 | 0.446 | 0.434 | 0.425 | 0.865 | 0.804 | 0.859 | 0.856 | 0.798 | 0.458 | 0.619 | 0.715 | 0.625 | 0.879 | 0.906 | 0.894 | 0.934 | 0.86 |
| SK-LU-1 | 0.433 | 0.611 | 0.488 | 0.365 | 0.405 | 0.994 | 0.776 | 1.03 | 1.05 | 0.834 | 0.515 | 0.499 | 0.686 | 0.644 | 0.459 | 0.446 | 0.436 | 0.321 | 0.376 |
| SK-MES-1 | 0.63 | 0.712 | 0.658 | 0.583 | 0.571 | 0.986 | 0.97 | 0.961 | 0.965 | 0.916 | 0.397 | 0.344 | 0.404 | 0.319 | 0.813 | 0.834 | 0.697 | 0.639 | 0.638 |
| SW 1573 | 0.363 | 0.487 | 0.368 | 0.363 | 0.284 | 0.769 | 0.798 | 0.769 | 0.872 | 0.611 | 0.516 | 0.533 | 0.496 | 0.509 | 0.534 | 0.531 | 0.446 | 0.44 | 0.361 |

Reference: the supplement of paper PMC10307832
